Experiment in all cases: KinomeScan kinase panel, single concentration 10 µM
Holding throughout (assay type): binding

Experiment [1] concerns the target T1, KinomeScan kinase panel (Homo sapiens, UniProt P08581).
T1 construct: purchased DiscoveRx (KinomeScan)
The note with it: MET, 10 µM.

In experiment [2] the target is T2, KinomeScan kinase panel (Homo sapiens, UniProt P22455).
T2 construct: purchased DiscoveRx (KinomeScan)
The settings on record: FGFR4, 10 µM; read-out: score (%).

The target of experiment [3] is T3, KinomeScan kinase panel (Homo sapiens, UniProt P29317).
T3 construct: purchased DiscoveRx (KinomeScan)
T3 sequence (P29317 24-976): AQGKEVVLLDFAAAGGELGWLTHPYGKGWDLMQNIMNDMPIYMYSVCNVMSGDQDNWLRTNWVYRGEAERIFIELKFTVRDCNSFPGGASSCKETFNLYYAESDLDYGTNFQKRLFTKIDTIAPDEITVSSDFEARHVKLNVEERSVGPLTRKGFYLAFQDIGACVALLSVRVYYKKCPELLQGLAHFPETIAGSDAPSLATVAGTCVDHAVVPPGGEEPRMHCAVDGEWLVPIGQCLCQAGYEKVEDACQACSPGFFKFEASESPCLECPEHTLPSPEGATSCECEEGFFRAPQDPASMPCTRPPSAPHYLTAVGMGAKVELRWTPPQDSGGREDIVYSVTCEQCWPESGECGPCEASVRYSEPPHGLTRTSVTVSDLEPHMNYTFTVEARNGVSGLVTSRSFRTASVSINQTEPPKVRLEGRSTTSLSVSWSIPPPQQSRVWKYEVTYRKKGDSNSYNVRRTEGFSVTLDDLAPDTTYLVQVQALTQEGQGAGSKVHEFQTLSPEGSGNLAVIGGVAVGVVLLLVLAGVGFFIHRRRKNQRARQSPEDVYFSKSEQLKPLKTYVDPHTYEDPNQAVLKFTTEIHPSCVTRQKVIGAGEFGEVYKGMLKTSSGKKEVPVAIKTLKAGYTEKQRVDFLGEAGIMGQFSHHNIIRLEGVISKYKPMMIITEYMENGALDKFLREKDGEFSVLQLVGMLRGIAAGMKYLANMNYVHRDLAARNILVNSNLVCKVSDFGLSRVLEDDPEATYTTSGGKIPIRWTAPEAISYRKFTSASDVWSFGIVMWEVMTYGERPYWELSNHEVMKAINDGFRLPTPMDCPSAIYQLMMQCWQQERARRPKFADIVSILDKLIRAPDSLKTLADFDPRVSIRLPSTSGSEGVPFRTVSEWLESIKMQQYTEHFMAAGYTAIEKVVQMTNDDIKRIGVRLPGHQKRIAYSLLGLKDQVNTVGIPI
The settings on record: EPHA2, 10 µM; read-out: score (%).

In experiment [4] the target is T4, KinomeScan kinase panel (Homo sapiens, UniProt P29320).
T4 construct: purchased DiscoveRx (KinomeScan)
T4 sequence (P29320 21-983): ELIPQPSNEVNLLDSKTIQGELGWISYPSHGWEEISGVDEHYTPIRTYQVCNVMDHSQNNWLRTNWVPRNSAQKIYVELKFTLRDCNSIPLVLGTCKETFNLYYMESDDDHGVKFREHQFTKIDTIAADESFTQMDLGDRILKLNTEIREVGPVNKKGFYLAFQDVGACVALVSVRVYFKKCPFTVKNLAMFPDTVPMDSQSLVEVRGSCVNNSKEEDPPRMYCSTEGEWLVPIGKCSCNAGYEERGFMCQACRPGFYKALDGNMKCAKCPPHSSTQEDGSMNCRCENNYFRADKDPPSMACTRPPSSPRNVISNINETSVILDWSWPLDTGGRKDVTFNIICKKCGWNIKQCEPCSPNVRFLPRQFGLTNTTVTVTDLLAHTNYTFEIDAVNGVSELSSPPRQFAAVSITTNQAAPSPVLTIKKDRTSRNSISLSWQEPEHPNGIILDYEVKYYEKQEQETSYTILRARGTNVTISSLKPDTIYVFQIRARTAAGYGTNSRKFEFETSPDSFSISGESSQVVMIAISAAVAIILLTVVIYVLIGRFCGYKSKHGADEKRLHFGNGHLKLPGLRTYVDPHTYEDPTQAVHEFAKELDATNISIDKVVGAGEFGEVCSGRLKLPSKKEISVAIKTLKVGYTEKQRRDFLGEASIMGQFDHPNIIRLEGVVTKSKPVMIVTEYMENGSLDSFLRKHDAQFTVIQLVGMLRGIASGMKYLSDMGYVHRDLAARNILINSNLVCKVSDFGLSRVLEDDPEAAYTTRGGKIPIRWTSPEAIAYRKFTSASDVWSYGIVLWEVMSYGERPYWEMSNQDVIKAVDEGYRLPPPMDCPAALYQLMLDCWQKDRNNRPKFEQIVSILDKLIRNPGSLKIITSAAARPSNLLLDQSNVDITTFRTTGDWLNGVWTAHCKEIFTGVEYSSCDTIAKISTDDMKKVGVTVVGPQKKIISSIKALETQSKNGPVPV
The note with it: EPHA3, 10 µM; read-out: score (%).

For experiment [5], the target named is T5, KinomeScan kinase panel (Homo sapiens, UniProt P51817).
T5 construct: purchased DiscoveRx (KinomeScan)
T5 sequence (P51817 1-358): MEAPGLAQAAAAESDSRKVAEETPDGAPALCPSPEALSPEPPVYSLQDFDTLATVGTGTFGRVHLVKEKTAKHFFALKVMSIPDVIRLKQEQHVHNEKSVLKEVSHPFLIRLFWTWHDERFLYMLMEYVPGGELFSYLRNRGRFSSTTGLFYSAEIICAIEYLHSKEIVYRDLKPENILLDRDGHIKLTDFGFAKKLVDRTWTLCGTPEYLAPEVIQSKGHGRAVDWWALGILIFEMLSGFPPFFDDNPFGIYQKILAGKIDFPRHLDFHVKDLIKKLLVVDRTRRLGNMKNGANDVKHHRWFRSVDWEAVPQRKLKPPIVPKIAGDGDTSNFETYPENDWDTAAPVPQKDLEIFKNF
The settings on record: 10 µM, read-out: score (%).

Experiment [6] has as its target T6, KinomeScan kinase panel (Homo sapiens, UniProt P54753).
T6 construct: purchased DiscoveRx (KinomeScan)
T6 sequence (P54753 34-998): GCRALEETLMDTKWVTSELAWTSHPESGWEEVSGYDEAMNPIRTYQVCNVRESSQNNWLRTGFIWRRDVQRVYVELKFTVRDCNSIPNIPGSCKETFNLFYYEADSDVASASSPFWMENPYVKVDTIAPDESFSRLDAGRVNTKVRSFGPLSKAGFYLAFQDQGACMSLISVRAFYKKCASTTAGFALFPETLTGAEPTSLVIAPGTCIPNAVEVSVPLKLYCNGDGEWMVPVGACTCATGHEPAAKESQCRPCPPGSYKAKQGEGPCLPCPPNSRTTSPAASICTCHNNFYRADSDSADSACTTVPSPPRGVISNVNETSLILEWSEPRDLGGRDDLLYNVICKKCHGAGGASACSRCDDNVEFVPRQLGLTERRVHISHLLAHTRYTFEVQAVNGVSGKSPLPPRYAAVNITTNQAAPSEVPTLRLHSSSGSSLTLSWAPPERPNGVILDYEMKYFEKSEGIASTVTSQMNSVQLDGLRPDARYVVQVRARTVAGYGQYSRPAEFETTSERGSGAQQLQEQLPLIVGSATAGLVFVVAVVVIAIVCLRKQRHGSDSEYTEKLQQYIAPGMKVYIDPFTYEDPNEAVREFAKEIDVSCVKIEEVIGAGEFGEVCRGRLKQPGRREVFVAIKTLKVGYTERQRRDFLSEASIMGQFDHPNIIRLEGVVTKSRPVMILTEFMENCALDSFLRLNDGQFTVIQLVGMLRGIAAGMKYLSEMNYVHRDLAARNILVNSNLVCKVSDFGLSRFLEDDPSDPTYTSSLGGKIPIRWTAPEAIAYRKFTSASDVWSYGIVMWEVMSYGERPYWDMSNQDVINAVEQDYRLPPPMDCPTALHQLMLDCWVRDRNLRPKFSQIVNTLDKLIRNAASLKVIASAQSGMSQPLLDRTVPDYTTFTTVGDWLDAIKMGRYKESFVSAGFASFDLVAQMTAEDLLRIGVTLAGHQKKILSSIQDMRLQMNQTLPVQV
The settings on record: EPHB3, 10 µM; read-out: score (%).

Experiment [7] addresses T7, KinomeScan kinase panel (Homo sapiens, UniProt Q02750).
T7 construct: purchased DiscoveRx (KinomeScan)
The note with it: MEK1, 10 µM; read-out: score (%).

In experiment [8] the target is T8, KinomeScan kinase panel (Homo sapiens, UniProt Q13153).
T8 construct: purchased DiscoveRx (KinomeScan)
T8 sequence (Q13153 whole entry): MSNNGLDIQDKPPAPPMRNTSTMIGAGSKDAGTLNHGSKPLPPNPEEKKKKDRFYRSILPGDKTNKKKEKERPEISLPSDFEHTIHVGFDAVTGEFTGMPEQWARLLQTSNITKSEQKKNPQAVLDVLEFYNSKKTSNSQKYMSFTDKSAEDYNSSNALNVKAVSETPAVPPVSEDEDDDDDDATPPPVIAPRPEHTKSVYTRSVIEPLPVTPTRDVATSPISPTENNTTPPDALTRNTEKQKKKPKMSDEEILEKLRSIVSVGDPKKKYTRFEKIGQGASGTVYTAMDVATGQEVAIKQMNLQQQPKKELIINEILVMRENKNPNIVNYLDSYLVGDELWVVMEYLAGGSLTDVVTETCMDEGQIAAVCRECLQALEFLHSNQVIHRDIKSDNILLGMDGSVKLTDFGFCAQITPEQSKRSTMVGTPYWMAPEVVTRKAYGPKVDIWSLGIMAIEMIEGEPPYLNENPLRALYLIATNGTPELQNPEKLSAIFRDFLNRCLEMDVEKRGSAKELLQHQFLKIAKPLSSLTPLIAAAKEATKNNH
The settings on record: PAK1, 10 µM; read-out: score (%).

Experiment [9] deals with T9, KinomeScan kinase panel (Homo sapiens, UniProt Q13164).
T9 construct: purchased DiscoveRx (KinomeScan)
T9 sequence (Q13164 whole entry): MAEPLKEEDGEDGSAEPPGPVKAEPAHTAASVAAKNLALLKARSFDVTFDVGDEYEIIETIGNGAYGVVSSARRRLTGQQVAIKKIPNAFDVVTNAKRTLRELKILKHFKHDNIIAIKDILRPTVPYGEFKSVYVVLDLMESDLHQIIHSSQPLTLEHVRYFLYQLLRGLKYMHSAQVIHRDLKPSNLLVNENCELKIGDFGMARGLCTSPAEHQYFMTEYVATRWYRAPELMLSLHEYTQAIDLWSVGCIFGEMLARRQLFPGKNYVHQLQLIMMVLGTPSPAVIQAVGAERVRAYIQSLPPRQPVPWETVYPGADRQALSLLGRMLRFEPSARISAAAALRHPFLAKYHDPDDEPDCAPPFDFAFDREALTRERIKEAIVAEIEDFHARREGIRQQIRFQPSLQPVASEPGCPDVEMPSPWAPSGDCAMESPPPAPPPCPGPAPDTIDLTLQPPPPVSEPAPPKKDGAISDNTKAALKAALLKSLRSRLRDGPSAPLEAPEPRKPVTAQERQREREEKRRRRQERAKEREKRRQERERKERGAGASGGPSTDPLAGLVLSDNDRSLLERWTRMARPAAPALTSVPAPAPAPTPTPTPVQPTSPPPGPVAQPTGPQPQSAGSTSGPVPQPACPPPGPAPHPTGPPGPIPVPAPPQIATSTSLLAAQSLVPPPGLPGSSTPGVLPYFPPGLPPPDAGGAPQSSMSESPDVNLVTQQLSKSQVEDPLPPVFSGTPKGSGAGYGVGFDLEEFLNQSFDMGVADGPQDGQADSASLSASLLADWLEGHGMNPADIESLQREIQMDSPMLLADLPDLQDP
The note with it: ERK5, 10 µM; read-out: score (%).

Experiment [10] relates to KinomeScan kinase panel.
Setting [11] is: EGFR(L747-E749del. A750P), 10 µM.
The mark [12] stands for this setting: EGFR(L747-S752del. P753S), 10 µM.

Experimental findings from publication PMC4457528, “Identification of Novel Small Molecule Inhibitors of Oncogenic RET Kinase” (PLoS ONE, 2015) are described below.

Values joined by “and” are separate entries in the source; they are usually repeats but may differ in a detail not shown here. Equal entries are not always repeated. Where two headings read alike, the source gives them in different places.

T1 sequence (P08581 25-1390): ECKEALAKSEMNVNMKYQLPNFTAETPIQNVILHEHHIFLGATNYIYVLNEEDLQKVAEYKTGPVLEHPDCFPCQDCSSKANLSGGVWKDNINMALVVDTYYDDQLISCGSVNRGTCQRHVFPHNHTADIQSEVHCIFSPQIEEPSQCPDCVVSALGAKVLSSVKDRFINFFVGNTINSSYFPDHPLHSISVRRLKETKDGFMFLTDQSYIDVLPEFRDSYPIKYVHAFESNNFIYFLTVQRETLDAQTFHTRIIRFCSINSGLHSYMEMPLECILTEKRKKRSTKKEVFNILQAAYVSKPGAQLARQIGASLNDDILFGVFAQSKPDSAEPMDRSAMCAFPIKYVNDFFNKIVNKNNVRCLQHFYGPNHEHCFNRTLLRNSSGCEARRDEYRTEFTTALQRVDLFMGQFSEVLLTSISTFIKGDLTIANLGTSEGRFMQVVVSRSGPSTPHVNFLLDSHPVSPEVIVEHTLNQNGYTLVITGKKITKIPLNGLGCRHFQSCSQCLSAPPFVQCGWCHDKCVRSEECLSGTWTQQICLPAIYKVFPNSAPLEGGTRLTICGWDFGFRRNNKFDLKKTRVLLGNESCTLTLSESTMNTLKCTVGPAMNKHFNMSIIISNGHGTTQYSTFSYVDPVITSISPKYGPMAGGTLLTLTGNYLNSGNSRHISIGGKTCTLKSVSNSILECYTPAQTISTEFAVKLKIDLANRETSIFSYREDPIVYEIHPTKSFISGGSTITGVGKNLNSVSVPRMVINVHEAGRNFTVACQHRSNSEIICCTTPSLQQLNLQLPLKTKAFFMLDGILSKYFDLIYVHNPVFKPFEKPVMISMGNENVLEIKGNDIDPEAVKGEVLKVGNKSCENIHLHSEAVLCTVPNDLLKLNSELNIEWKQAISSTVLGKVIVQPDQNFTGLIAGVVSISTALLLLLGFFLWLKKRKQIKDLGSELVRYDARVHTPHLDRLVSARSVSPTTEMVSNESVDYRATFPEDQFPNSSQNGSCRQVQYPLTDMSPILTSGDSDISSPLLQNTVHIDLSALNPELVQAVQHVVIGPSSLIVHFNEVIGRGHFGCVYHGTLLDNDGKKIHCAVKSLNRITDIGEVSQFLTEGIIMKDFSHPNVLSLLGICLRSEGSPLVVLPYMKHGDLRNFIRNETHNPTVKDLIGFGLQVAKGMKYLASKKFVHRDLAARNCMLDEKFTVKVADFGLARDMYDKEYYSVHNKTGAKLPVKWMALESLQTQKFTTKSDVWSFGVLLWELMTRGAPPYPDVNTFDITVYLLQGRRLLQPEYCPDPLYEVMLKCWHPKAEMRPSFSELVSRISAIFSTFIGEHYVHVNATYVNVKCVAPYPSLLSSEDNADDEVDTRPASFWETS
T2 sequence (P22455 22-802): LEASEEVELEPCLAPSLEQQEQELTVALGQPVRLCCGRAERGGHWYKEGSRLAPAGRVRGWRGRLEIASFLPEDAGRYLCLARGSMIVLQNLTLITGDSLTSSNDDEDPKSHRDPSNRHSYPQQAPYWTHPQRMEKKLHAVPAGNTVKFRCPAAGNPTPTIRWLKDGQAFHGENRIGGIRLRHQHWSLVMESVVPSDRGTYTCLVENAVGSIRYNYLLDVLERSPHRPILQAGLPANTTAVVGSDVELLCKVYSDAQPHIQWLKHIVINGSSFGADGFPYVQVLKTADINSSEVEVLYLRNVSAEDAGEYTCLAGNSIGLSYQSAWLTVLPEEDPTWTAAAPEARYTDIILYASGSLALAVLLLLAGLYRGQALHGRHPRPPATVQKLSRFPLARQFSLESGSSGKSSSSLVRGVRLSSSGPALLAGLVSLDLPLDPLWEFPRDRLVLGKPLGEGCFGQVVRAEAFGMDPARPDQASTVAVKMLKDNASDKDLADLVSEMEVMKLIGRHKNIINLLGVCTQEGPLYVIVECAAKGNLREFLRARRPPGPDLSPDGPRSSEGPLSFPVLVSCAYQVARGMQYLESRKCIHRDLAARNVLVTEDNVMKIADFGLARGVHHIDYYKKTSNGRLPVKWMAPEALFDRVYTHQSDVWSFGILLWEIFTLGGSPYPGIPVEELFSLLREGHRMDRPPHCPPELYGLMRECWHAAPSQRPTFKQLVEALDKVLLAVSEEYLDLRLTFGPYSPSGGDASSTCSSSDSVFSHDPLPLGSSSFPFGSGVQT
T7 sequence (Q02750 whole entry): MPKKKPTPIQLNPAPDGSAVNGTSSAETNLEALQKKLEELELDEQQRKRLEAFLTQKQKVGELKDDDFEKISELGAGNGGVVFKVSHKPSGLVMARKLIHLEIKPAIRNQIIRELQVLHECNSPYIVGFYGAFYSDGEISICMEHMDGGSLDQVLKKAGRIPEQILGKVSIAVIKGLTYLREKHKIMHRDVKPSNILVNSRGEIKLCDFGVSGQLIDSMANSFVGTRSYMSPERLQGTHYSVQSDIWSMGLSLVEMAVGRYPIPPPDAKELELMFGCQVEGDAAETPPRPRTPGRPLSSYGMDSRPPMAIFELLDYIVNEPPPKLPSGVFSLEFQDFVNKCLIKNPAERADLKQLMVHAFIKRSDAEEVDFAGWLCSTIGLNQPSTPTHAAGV

For `CCN1CCN(Cc2ccc(NC(=O)c3ccc(C)c(NC(=O)c4cncc(-c5cccs5)c4)c3)cc2C(F)(F)F)CC1` [ALW-II-41-27], the “score (%)” value on KinomeScan kinase panel [1] was “nb (Hits values higher than 30% were considered negative (no binding: nb))”; with KinomeScan kinase panel [10] it was 0.55% and 3% and 1.8%; in the experiment with KinomeScan kinase panel [10] (FLT3(ITD), 10 µM) it was 0.4%; in the experiment on KinomeScan kinase panel [10] (kinase TAO1, 10 µM) it was 12%. Also, the remaining binding at 10 µM was 8.7% at KinomeScan kinase panel [2]; 0.15% on KinomeScan kinase panel [3]; 7.6% at KinomeScan kinase panel [4]; > 30% at KinomeScan kinase panel [5] (PRKX); 0.3% on KinomeScan kinase panel [6]; > 30% on KinomeScan kinase panel [7]. Besides, the remaining binding at 10 µM on KinomeScan kinase panel [8] and on KinomeScan kinase panel [9] was > 30% throughout.
Consider `CCN1CCN(Cc2ccc(NC(=O)c3ccc(C)c(/C=C/c4cnc5[nH]ccc5c4Cl)c3)cc2C(F)(F)F)CC1` [HG-6-63-01, (E)-3-(2-(4-chloro-1H-pyrrolo[2,3-b]pyridin-5-yl)vinyl)-N-(4-((4-ethylpiperazin-1-yl)methyl)-3-(trifluoromethyl)phenyl)-4-methylbenzamide], for which the “score (%)” value on KinomeScan kinase panel [1] is reported as “nb (Hits values higher than 30% were considered negative (no binding: nb))”; with KinomeScan kinase panel [10] (setting [11]) it was 0%; in the experiment with KinomeScan kinase panel [10] (setting [12]), 0%; with KinomeScan kinase panel [10] (EGFR(L747-T751del.Sins), 10 µM), 0%; with KinomeScan kinase panel [10] (FLT3(ITD), 10 µM), 0.1%. Besides, the remaining binding at 10 µM at KinomeScan kinase panel [2] is 0.2%; on KinomeScan kinase panel [3], 0.25%; on KinomeScan kinase panel [4], 11%; at KinomeScan kinase panel [5] (PRKX) it was > 30%; at KinomeScan kinase panel [6] it was 11%; on KinomeScan kinase panel [7], > 30%. Further, the remaining binding at 10 µM at KinomeScan kinase panel [8] and at KinomeScan kinase panel [9] was > 30% in each case.
Consider `CCN1CCN(Cc2ccc(NC(=O)c3ccc(C)c(C#Cc4cccnc4)c3)cc2C(F)(F)F)CC1` [XMD15-44], for which the “score (%)” value is given as “nb (Hits values higher than 30% were considered negative (no binding: nb))” on KinomeScan kinase panel [1]; 1.2% with KinomeScan kinase panel [10] (setting [11]); 0.9% in the experiment with KinomeScan kinase panel [10] (setting [12]); 0.45% in the experiment on KinomeScan kinase panel [10] (EGFR(L747-T751del.Sins), 10 µM); 0.1% in the experiment with KinomeScan kinase panel [10] (FLT3(ITD), 10 µM). In addition, the remaining binding at 10 µM on KinomeScan kinase panel [2] was 0%; on KinomeScan kinase panel [3], 0.4%; on KinomeScan kinase panel [4] it was 0.85%; at KinomeScan kinase panel [5] (kinase PRKX) it was 3.6%; at KinomeScan kinase panel [6], 0.25%; on KinomeScan kinase panel [7], > 30%. The remaining binding at 10 µM is 81% on KinomeScan kinase panel [8] and > 30% on KinomeScan kinase panel [9].
